pEC50, pIC50: −log10 of the molar value. ≈ marks a conversion by molar mass, not a printed value.

Test [1] deals with Hepatitis C virus. Nature of the test: Antiviral activity against HCV genotype 1b/6a NS5A infected in human Huh-7 cells by phenotypic assay. The test is classed as functional, organism-based, Hepacivirus hominis.
Test [2] relates to Hepatitis C virus. Nature of the test: Antiviral activity against HCV genotype 1b/3a NS5A infected in human Huh-7 cells by phenotypic assay. The test is classed as functional, organism-based, Hepacivirus hominis.
The subject of test [3] is Hepatitis C virus. Kind of test: Antiviral activity against HCV. The class given is functional, organism-based, Hepacivirus hominis.
For test [4], the system named is FaDu. Kind of test: Antitumor activity against human FaDu cells assessed as cell growth inhibition. The class given is functional, cell-based.
In test [5] the test system is NALM-6. Nature of the test: Antitumor activity against human NALM-6 cells assessed as cell growth inhibition. The class given is functional, cell-based.
Test [6] relates to Hep 3B2. Nature of the test: Antitumor activity against human Hep3B cells assessed as cell growth inhibition. The class given is functional, cell-based.
Test [7] has as its system HCC1954. Kind of test: Antitumor activity against human HCC1954 cells assessed as cell growth inhibition. The test is classed as functional, cell-based.
For test [8], the system named is BT-474. Nature of the test: Antitumor activity against human BT-474 cells assessed as cell growth inhibition. The class given is functional, cell-based.
Test [9] relates to SARS-CoV-2. Kind of test: Antiviral activity against SARS-CoV-2 by cell based assay. Particulars: Severe acute respiratory syndrome coronavirus 2. The class given is functional, organism-based.
Test [10] relates to Murine hepatitis virus. Nature of the test: microbe, parasite or virus in culture. Particulars: Murine coronavirus.
Test [11] has as its system Feline infectious peritonitis virus. Nature of the test: microbe, parasite or virus in culture. The note with it: Alphacoronavirus 1.
Test [12] deals with SARS-CoV-2. Nature of the test: microbe, parasite or virus in culture. Particulars: Severe acute respiratory syndrome coronavirus 2.
The subject of test [13] is SARS-CoV. Kind of test: microbe, parasite or virus in culture. The note with it: Severe acute respiratory syndrome-related coronavirus.
Test [14] concerns Middle East respiratory syndrome-related coronavirus. Nature of the test: microbe, parasite or virus in culture.
For test [15] the test system is unchanged. Kind of test: Antiviral activity against MERS-CoV by cell based assay. The class given is functional, organism-based.
In test [16] the test system is Mycolicibacterium phlei. Kind of test: Antibacterial activity against Mycobacterium phlei DSM750 assessed as minimal inhibitory concentration by microdilution assay. The test is classed as functional.
Test [17] relates to Escherichia coli. Kind of test: Antibacterial activity against Escherichia coli BW25113 assessed as minimal inhibitory concentration by microdilution assay. The test is classed as functional.
Test [18] concerns Salmonella typhimurium. Kind of test: Antibacterial activity against Salmonella typhimurium TA100 assessed as minimal inhibitory concentration by microdilution assay. The test is classed as functional, Salmonella enterica subsp. enterica serovar Typhimurium. The note with it: Salmonella enterica.
Test [19] concerns Bacillus subtilis. Nature of the test: Antibacterial activity against Bacillus subtilis DSM10 assessed as minimal inhibitory concentration by microdilution assay. The test is classed as functional.
The target of test [20] is T1, Enoyl-[acyl-carrier-protein] reductase [NADH] FabI (Escherichia coli K-12, UniProt P0AEK4).
T1 sequence (P0AEK4 whole entry): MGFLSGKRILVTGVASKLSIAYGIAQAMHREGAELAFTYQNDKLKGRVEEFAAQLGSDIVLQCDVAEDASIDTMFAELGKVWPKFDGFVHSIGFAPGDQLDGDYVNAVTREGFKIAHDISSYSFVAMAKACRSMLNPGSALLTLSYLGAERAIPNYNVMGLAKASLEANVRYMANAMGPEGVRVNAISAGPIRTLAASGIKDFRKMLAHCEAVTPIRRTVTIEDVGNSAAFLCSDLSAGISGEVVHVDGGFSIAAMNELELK
Nature of the test: Inhibition of Escherichia coli […] assessed as measuring NADH consumption rate.

In test [21] the test system is Acinetobacter baumannii. Kind of test: Antibacterial activity against Acinetobacter baumannii ATCC BAA1605 assessed as minimal inhibitory concentration. The test is classed as functional.
In test [22] the test system is Escherichia coli. Kind of test: Antibacterial activity against Escherichia coli AG100 assessed as minimal inhibitory concentration. The class given is functional.
For test [23], the system named is Staphylococcus aureus. Kind of test: Antibacterial activity against Staphylococcus aureus ATCC 29213 assessed as minimal inhibitory concentration. The test is classed as functional.
The subject of test [24] is Klebsiella pneumoniae subsp. ozaenae. Kind of test: Antibacterial activity against Klebsiella pneumoniae A6030827 assessed as minimal inhibitory concentration. The test is classed as functional.
Test [25] in a line: Inhibition of Acinetobacter baumannii […] assessed as measuring NADH consumption rate.
Test [26] in a line: Inhibition of FITC-labeled NS4A binding to HCV NS3 (4 to 182 residues) expressed in Escherichia coli […] (DE3) incubated for 60 mins by fluorescence anisotropy based competition assay. On the set-up: species or system Hepacivirus hominis.

In the case of `COC(=O)N[C@H](C(=O)N1CCC[C@H]1c1ncc(-c2ccc(-c3ccc(-c4cnc([C@@H]5CCCN5C(=O)[C@@H](NC(=O)OC)C(C)C)[nH]4)cc3)cc2)[nH]1)C(C)C`, the pEC50 was 10.33 in test [1] and 9.98 in [2].

Turning to `CC[C@@H]1[C@@H]2CN(C(=O)[C@H](C(C)(C)C)NC(=O)O[C@@H]3C[C@H]3CCCCC(F)(F)c3nc4ccc(OC)cc4nc3O2)[C@@H]1C(=O)N[C@]1(C(=O)NS(=O)(=O)C2(C)CC2)C[C@H]1C(F)F`, in [3], the negative logarithm of the EC50 (pEC50) is 7.15.

Consider `CCCCCCCCCCCCCCc1cccc(O[C@H]2C[C@@H](C(=O)NCC(c3ccccc3)c3ccccc3)N(C(=O)[C@@H](NC(=O)[C@H](C)NC)C(C)(C)C)C2)c1`, for which the negative-log EC50 (pEC50) in [4] was 5.82; in test [5], 4.95; in [6], 5.66; in test [7] it was 4.70; in [8], 5.15.

Take `CC(C)C[C@H](NC(=O)OC1CCC(F)(F)CC1)C(=O)N[C@H](C=O)C[C@H]1CCNC1=O`: the negative logarithm of the EC50 (pEC50) is 6.96 in [9], 7.10 in test [10] and 6.92 in [11]. Besides, the pIC50 in [12] was 5.82; in test [13], 5.64; in [14], 7.15.

With `CC(C)C[C@H](NC(=O)OCC1CCC(F)(F)CC1)C(=O)N[C@H](C=O)C[C@H]1CCNC1=O`, the negative-log EC50 (pEC50) was 7.52 in test [15] and 7.10 in [11]. In addition, in [12], the pIC50 is 6.05.

On to `CCCCC1CCC(OC(=O)N[C@@H](CC(C)C)C(=O)N[C@H](C=O)C[C@H]2CCNC2=O)CC1` (stereo not given in full), for which the pEC50 in test [9] is 7.00; in test [10], 6.92; in [11], 6.66. Further, the results for the negative-log IC50 (pIC50) in test [12], in test [13] and in [14] were 6.10, 6.05 and 6.82, respectively.

For `COC(=O)N[C@H](C(=O)N1CCC[C@H]1C(=O)Nc1cccc(-c2ccc3c(c2)C(F)(F)c2cc(-c4cnc([C@@H]5CCCN5C(=O)[C@@H](NC(=O)OC)C(C)C)[nH]4)ccc2-3)c1)C(C)C`, the figures for the negative-log EC50 (pEC50) in test [1], in test [2] and in [3] were 9.56, less than 9.30 and more than 10.30, respectively.

Regarding `CC(C)C[C@H](NC(=O)OC1CCC(F)(F)CC1)C(=O)N[C@@H](C[C@H]1CCNC1=O)C(O)S(=O)(=O)O` (stereo not given in full), the negative logarithm of the EC50 (pEC50) in test [15] was 6.68; in test [10], 6.96; in test [11] it was 6.92. The pIC50 in [12] is 5.80; in test [13] it was 5.66; in [14], 7.10.

Take `COC(=O)N[C@H](C(=O)N1CCC[C@H]1C(=O)Nc1cc2ccc1CCc1ccc(cc1NC(=O)[C@@H]1CCCN1C(=O)[C@@H](NC(=O)OC)C(C)C)CC2)C(C)C`: the negative-log EC50 (pEC50) was less than 9.30 in test [1], less than 9.30 in [2] and 10.10 in test [3].

`CCCCCCCCCCCCCCCCCCS[C@H]1C[C@@H](C(=O)NCC(c2ccccc2)c2ccccc2)N(C(=O)[C@@H](NC(=O)[C@H](C)NC)C(C)(C)C)C1`: the pEC50 in test [4] is 5.27; in test [5] it was 4.57; in test [6], 4.91; in test [7] it was 4.76; in test [8], 4.97.

Take `CCCCC1CCC(OC(=O)N[C@@H](CC(C)C)C(=O)N[C@@H](C[C@H]2CCNC2=O)C(O)S(=O)(=O)O)CC1` (stereo not given in full): the figures for the pEC50 in test [15], in test [10] and in [11] were 6.28, 6.89 and 6.77, respectively. Moreover, the values for the pIC50 in [12], in test [13] and in [14] were 5.96, 6.00 and 6.89, respectively.

Take `COc1c(NC(=O)c2ccc(-c3ccc4[nH]c(-c5ccc(NC(=O)[C@H](CC#N)NC(=O)c6ccc(NC(=O)/C(C)=C/c7ccc(O)cc7)cc6)cc5)nc4c3)c(OC)c2O)ccc(C(=O)O)c1O`: the MIC in [16] turned out to be 8 µg/mL (≈ 8.73 µM); in [17], 0.25 µg/mL (≈ 0.273 µM); in [18], 0.063 µg/mL (≈ 0.0688 µM); in [19], 2 µg/mL (≈ 2.18 µM).

Consider `Cc1c(CN(C)C(=O)/C=C/c2cnc3c(c2)CC[C@@H](N)C(=O)N3)oc2ccccc12.Cl`, for which the pIC50 in test [20] and in [25] was more than 8.00 in each case. The MIC in test [21], in [22], in [23] and in test [24] was not above 4 µg/mL each time.

In the case of `CC(C)C[C@H](NC(=O)OC1CCCCC1)C(=O)N[C@@H](C[C@H]1CCNC1=O)C(O)S(=O)(=O)O` (stereo not given in full), the values for the negative-log EC50 (pEC50) in [15], in test [10] and in [11] were 7.10, 7.10 and 7.15, respectively. Besides, the negative logarithm of the IC50 (pIC50) was 5.46 in test [12], 5.42 in test [13] and 6.82 in test [14].

For `Cc1c(CN(C)C(=O)/C=C/c2cnc3c(c2)NC[C@@H](N)C(=O)N3)oc2ccccc12.Cl`, the pIC50 in test [20] and in test [25] was more than 8.00 in each case. Moreover, the MIC in test [21], in [22], in test [23] and in [24] was less than 4 µg/mL in each case.

As to `Cc1oc2c(N)cccc2c1CN(C)C(=O)/C=C/c1cnc2c(c1)N[C@H](C)[C@H](N)C(=O)N2`, the MIC in test [21], in test [22] and in test [23] was not above 4 µg/mL in each case. Further, the pIC50 in test [25] is more than 8.00.

`CCCC1CCC(OC(=O)N[C@@H](CC(C)C)C(=O)N[C@H](C=O)C[C@H]2CCNC2=O)CC1` (stereo not given in full): the negative-log EC50 (pEC50) in test [15] was 7.30; in test [9], 7.00; in [10], 6.89; in test [11] it was 6.92. For the same compound, the pIC50 in test [12] is 5.80.

Consider `Cc1oc2c(N)cccc2c1CN(C)C(=O)/C=C/c1cnc2c(c1)CCC(N1CCCC1)C(=O)N2` (stereo not given), for which, in test [20], the pIC50 was more than 8.00. The results for the MIC in test [21], in test [22] and in test [23] were not above 4 µg/mL, 8 µg/mL (≈ 16.9 µM) and not above 4 µg/mL, respectively.

For `COC(=O)N[C@H](C(=O)N1CCC[C@@H]1c1ncc(-c2cccc(-c3c4c(c(-c5cccc(-c6cnc([C@@H]7CCCN7C(=O)[C@H](NC(=O)OC)c7ccccc7)[nH]6)c5)c5c3C(C)(C)CC5)C(C)(C)CC4)c2)[nH]1)c1ccccc1`, in test [2], the pEC50 was 10.28.

In the case of `Cc1c(CN(C)C(=O)/C=C/c2cnc3c(c2)CC[C@@H](N2CCCC2)C(=O)N3)oc2ccccc12`, the pIC50 in test [20] and in test [25] was more than 8.00 each time. In addition, the MIC in [21], in test [22], in test [23] and in test [24] was not above 4 µg/mL each time.

In test [1], `COC(=O)N[C@@H](C(=O)N1CCC[C@H]1C(=O)Nc1cncc(-c2c3c(c(-c4cncc(NC(=O)[C@@H]5CCCN5C(=O)[C@H](NC(=O)OC)c5ccccc5)c4)c4c2C(C)(C)CC4)C(C)(C)CC3)c1)c1ccccc1` showed a pEC50 of less than 9.30.

Consider `Cc1c(CN(C)C(=O)/C=C/c2cnc3c(c2)NC[C@@H](N2C[C@@H](C)O[C@@H](C)C2)C(=O)N3)oc2ccccc12`, for which the negative logarithm of the IC50 (pIC50) in test [20] is more than 8.00. The MIC in test [21] was not above 4 µg/mL; in test [23], not above 4 µg/mL; in test [24] it was 16 µg/mL (≈ 31.8 µM).

`Cc1c(CN(C)C(=O)/C=C/c2cnc3c(c2)N[C@H](C)[C@H](N)C(=O)N3)oc2ccccc12`: the MIC in test [21], in [22] and in [23] was not above 4 µg/mL throughout. The pIC50 in test [25] was more than 8.00.

For `CCCCCCNC(=O)c1ncc(C(=O)NCCCCNC(=N)N)[nH]1`, the pIC50 in test [26] is 5.33.

In turn, `CCCCCNC(=O)c1ncc(C(=O)NCCCCNC(=N)N)[nH]1` gave a pIC50 in [26] of 5.72.

For the compound `CNC(=O)CNC(=O)c1ncc(C(=O)NCCCCNC(=N)N)[nH]1`, in test [26], the negative logarithm of the IC50 (pIC50) was 5.72.

For the origin of these results see ChEMBL document CHEMBL5120880, “Peptidomimetics: An Overview of Recent Medicinal Chemistry Efforts toward the Discovery of Novel Small Molecule Inhibitors” (J Med Chem, 2022).
